The target of assay [1] is Serine/threonine-protein phosphatase PP1-alpha catalytic subunit (Homo sapiens, UniProt P62136). Briefly: PP1 phosphatase inhibitors, dose response, biochemical, fluorescence (AID 2394).
Assay [2] has as its target T1, Tyrosyl-DNA phosphodiesterase 2 (Homo sapiens, UniProt O95551).
T1 sequence (O95551 whole entry): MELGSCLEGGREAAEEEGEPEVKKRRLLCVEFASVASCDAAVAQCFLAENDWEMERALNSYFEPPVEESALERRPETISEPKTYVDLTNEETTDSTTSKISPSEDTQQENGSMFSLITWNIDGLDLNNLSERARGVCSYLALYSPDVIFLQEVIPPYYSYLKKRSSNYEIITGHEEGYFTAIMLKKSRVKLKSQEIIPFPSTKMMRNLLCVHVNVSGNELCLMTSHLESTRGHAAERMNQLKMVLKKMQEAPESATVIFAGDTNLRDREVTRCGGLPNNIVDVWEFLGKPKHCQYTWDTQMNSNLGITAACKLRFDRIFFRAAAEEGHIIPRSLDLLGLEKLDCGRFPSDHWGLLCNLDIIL
The assay is described as follows: human TDP2 enzyme inhibitors, dose response, biochemical, epi absorbance, IC50 (AID 743297).

Assay [3] deals with Serine/threonine-protein phosphatase (Homo sapiens, UniProt Q9BPW0). The assay is described as follows: PP5 phosphatase inhibitors, dose response, biochemical, fluorescence (AID 2395).
The target of assay [4] is T2, Protein RecA (Mycobacterium tuberculosis, UniProt P9WHJ3).
T2 sequence (P9WHJ3 whole entry): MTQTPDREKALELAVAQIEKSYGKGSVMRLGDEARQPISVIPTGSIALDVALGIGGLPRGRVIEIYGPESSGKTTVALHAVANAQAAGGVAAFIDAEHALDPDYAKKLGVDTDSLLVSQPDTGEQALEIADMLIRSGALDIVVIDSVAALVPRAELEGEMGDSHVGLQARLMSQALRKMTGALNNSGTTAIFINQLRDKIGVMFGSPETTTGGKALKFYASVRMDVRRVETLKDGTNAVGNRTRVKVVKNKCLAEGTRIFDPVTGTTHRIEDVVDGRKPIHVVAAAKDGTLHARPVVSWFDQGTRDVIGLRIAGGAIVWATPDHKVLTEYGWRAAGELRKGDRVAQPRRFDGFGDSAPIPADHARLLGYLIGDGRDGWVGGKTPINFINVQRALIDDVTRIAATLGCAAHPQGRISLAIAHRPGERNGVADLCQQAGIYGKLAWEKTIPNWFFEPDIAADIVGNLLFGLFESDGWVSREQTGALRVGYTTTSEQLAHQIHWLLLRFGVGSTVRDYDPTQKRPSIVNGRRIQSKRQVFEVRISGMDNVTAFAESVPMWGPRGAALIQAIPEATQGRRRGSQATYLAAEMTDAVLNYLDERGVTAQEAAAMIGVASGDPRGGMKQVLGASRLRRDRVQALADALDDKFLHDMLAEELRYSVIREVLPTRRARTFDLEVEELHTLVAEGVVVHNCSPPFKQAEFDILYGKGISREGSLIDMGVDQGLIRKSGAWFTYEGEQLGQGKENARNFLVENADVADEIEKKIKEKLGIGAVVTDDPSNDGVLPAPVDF
Briefly: Fluorescence Cell-Free Homogeneous Dose Retest to Identify Inhibitors of RecA-Intein Splicing Activity. [Related pubchem assays (depositor defined):AID2097, AID2223, AID489010, AID492950]. In kind it is functional.

In assay [5] the target is Transitional endoplasmic reticulum ATPase (Homo sapiens, UniProt P55072, C522A). Briefly: C522A mutant p97 ATPase inhibitors, dose response, counter-screen for p97 inhibitor project, biochemical, luminescence (AID 1544).
For assay [6], the system named is HEK293. The assay is described as follows: SAR analysis of compounds that are cytotoxic to HEK293 - Set 2. [Related pubchem assays (depositor defined):AID1575, AID1578, AID1849, AID2001, AID2333, AID2334, AID2335, AID2337, AID2800]. In kind it is functional, cell-based. The note with it: Homo sapiens.
The target in assay [7] is T3, Interleukin-8 (Homo sapiens, UniProt P10145).
T3 sequence (P10145 whole entry): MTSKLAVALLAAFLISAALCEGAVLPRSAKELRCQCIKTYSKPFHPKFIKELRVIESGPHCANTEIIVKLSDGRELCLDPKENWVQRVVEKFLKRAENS
The assay is described as follows: SAR analysis of GM-Tri-DAP induced IL-8 secretion in MCF-7/NOD1 cells - Set 2. [Related pubchem assays (depositor defined):AID1575, AID1578, AID2333]. In kind it is functional, cell-based.

In assay [8] the target is T4, Nucleotide-binding oligomerization domain-containing protein 1 (Homo sapiens, UniProt Q9Y239).
T4 sequence (Q9Y239 whole entry): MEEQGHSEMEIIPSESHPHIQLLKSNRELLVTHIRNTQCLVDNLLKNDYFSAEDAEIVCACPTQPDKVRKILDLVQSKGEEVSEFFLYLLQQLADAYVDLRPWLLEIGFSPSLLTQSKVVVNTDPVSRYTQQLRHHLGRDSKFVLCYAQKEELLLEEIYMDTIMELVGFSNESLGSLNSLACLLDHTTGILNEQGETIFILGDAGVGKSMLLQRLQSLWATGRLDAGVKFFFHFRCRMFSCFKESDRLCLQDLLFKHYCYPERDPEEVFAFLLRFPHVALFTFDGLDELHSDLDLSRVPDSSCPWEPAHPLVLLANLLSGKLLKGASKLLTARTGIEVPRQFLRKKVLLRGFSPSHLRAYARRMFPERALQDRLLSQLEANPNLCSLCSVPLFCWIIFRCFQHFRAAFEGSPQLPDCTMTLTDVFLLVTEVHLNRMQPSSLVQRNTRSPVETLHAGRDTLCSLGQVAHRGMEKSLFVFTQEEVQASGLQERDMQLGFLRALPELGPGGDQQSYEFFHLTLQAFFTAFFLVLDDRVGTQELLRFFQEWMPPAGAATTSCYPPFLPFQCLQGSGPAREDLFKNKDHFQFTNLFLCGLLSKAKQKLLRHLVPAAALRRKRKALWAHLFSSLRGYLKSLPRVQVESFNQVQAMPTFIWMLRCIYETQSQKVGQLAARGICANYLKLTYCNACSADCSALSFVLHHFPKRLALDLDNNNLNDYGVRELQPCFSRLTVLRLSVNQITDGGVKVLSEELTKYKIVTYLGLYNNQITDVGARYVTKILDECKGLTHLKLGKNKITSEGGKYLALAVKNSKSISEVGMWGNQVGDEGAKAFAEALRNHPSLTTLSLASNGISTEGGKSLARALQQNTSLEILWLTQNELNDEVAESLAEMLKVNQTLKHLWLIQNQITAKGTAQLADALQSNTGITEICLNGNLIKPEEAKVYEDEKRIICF
The assay is described as follows: SAR analysis of NF-kappaB dependent luciferase using DAP as an inducer - Set 2. [Related pubchem assays (depositor defined):AID1566, AID1575, AID1578, AID1579, AID1849, AID1852, AID2264]. The assay is classed as functional.

Assay [9] in a line: HepG2 cell cytotoxicity, dose response, cytotoxicity control for Shn3 inhibitor project, CellTiter-Glo, cherry-picked (AID 624134). The assay is classed as functional, cell-based.
Assay [10] deals with Paired box protein Pax-8 (Homo sapiens, UniProt Q06710). The assay is described as follows: inhibitors of PAX8-driven TPO luciferase reporter, dose response, RMG-I cells, cherry-pick (AID 687027).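 Further: luciferase reporter driven by Pax8 target thyroperoxidase promoter measured by SteadyGlo luminescence.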 The assay is classed as functional, cell-based.

Calls of active or inactive are those of the source.

Serine/threonine-protein phosphatase PP1-alpha catalytic subunit, sequence (P62136 whole entry): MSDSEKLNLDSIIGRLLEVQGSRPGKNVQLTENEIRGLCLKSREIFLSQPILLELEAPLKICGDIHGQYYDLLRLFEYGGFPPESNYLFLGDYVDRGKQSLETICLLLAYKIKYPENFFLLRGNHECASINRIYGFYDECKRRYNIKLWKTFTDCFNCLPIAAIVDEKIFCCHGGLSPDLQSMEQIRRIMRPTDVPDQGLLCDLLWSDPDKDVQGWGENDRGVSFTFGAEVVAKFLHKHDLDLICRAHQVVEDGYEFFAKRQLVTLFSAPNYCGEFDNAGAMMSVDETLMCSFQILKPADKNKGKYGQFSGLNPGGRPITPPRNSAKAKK
Serine/threonine-protein phosphatase, sequence (Q9BPW0 whole entry): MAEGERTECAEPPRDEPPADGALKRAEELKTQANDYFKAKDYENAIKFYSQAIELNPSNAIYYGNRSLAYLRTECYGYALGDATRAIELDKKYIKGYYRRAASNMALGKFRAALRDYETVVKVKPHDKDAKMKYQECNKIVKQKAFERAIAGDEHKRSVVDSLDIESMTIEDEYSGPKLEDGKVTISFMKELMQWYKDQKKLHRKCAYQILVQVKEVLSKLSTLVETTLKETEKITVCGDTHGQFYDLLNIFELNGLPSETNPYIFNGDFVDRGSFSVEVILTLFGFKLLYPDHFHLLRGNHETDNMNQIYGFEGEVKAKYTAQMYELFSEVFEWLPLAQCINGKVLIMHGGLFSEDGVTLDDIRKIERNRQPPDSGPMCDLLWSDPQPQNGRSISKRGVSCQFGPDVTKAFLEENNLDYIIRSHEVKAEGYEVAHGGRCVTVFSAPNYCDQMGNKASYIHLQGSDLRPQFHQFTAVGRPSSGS
Transitional endoplasmic reticulum ATPase, sequence (P55072 2-806 C522A limits assumed): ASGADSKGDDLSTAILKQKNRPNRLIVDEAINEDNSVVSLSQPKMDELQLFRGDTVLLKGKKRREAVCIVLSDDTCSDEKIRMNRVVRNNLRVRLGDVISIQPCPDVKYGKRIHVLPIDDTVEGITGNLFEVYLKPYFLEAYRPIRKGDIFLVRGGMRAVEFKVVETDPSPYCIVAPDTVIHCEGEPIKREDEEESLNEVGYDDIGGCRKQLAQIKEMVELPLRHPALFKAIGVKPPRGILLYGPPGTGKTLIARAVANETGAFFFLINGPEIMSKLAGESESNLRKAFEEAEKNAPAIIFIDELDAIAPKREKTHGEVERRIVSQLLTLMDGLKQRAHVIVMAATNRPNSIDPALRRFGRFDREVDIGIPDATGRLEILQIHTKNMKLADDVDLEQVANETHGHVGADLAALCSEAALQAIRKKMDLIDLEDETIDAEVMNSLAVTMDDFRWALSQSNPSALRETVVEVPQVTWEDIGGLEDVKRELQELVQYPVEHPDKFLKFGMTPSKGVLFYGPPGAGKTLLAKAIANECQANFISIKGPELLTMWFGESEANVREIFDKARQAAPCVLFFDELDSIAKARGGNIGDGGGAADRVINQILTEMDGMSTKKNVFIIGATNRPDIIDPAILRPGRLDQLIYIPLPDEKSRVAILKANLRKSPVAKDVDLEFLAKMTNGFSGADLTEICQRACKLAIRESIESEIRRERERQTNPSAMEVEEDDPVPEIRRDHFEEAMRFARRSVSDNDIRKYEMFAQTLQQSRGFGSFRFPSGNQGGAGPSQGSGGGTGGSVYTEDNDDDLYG
Paired box protein Pax-8, sequence (Q06710 whole entry): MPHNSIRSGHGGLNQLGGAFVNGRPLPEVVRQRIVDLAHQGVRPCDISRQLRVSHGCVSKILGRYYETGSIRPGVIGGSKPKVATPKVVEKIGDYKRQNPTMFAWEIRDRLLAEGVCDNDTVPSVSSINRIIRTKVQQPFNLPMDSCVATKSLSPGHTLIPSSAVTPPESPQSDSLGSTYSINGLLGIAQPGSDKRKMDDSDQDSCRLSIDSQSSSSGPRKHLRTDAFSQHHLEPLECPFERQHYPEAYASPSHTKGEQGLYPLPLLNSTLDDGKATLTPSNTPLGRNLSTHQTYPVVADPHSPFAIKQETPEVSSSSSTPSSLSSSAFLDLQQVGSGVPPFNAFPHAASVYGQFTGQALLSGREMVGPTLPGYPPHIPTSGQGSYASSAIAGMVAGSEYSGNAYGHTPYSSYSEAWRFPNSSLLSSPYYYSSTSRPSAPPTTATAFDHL

For the compound `O=C(NC1(O)C(=O)c2ccccc2C1=O)c1ccc(C(F)(F)F)cc1`, the IC50 in assay [1] is > 67 µM (not active); in [2], 3.85 µM (active); in [3] it was > 0.828 µM (active).
For `O=C(NC1(O)C(=O)c2ccccc2C1=O)c1c(Cl)cccc1Cl`, the IC50 is > 67 µM (not active) in [1], 4.2 µM (active) in assay [2], > 2.48 µM (active) in assay [3] and > 50 µM (not active) in assay [5]. In addition, in assay [4], the EC50 is 28.6 µM (active).
`CCN(c1ccccc1)c1cc2ccccc2c(=O)[nH]1`: the EC50 in assay [4] is > 380 µM (inactive).
`Cn1c(=O)[nH]c(=O)c2c1nc([N+](=O)[O-])n2Cc1ccccc1`: the IC50 in [6] is 13.7 µM (active); in assay [7] it was 2.16 µM (active); in [8] it was > 25 µM (inactive). The EC50 in [4] was 5.87 µM (active). Besides, the AC50 in assay [9] was 18.3 µM (active); in [10], 3.81 µM (active).

(Values after ChEMBL document CHEMBL1201862, “PubChem BioAssay data set” (2004).)
